Patent publication US20240294541A1, “COMPOUNDS CONSTITUTING C20-MODIFIED SALINOMYCIN DERIVATIVES, A METHOD FOR OBTAINING THE SAME, A COMPOSITION CONTAINING THE SAME AND A USE OF SAID COMPOUNDS” (FILECLO SPOLKA Z OGRANICZONA ODPOWIEDZIALNOSCIA, priority 2021, published 2024)
Read-outs that look alike come from different tables or passages of the source.

Legend:
Format in all cases: cell-based
[1] = tested on: MV-4-11 (human biphenotypic leukaemia); assay: In vitro cytotoxicity, MTT assay, MV-4-11; settings: for IC50: Homo sapiens, MV4-11, read-out: IC50 (nM) MV4-11
[2] = tested on: PLC/PRF/5 (human liver cancer); assay: cells; settings: for SI PLC/PRF/5: selectivity coefficient vs normal BALB/3T3 fibroblasts
[3] = tested on: BALB/3T3 (normal mouse fibroblasts); assay: In vitro cytotoxicity, SRB assay, normal BALB/3T3 fibroblasts
[4] = tested on: MIA PaCa-2 (human pancreatic cancer); assay: cells; settings: for SI MIA PaCa-2: selectivity coefficient vs normal BALB/3T3 fibroblasts
[5] = tested on: NCI-H358 (human lung cancer); assay: cells; settings: for SI NCI-H358: selectivity coefficient vs normal BALB/3T3 fibroblasts
[6] = tested on: A2780Cis (cisplatin-resistant human ovarian cancer); assay: In vitro cytotoxicity, SRB assay, A2780Cis; settings: for IC50: Homo sapiens, A2780cis, read-out: IC50 (nM) A2780Cis
[7] = tested on: SNU-16 (human gastric cancer); assay: cells; settings: for SI SNU-16: selectivity coefficient vs normal BALB/3T3 fibroblasts
Hs294T (human melanoma) = assay: cells; settings: for IC50: Hs 294T, read-out: IC50 (nM) Hs294T; for SI Hs294T: selectivity coefficient vs normal BALB/3T3 fibroblasts
[8] = Table 4, PLC/PRF/5 human liver cancer cells, read-out: IC50 (nM) PLC/PRF/5
[9] = Table 4, BALB/3T3 normal mouse fibroblasts, read-out: IC50 (nM) BALB3T3 normal cells
[10] = Table 4, MIA PaCa-2 human pancreatic cancer cells, read-out: IC50 (nM) MIA PaCa-2
[11] = Table 4, NCI-H358 human lung cancer cells, read-out: IC50 (nM) NCI-H358
[12] = Table 4, SNU-16 human gastric cancer cells, read-out: IC50 (nM) SNU-16
[13] = Table 4, Hs294T human melanoma cells

Row | SMILES | SI MV4-11 [1] | IC50 [1] [nM] | IC50 [2, 8] [nM] | SI PLC/PRF/5 ([2]; Table 4) | IC50 [3, 9] [nM] | IC50 [4, 10] [nM] | SI MIA PaCa-2 ([4]; Table 4) | IC50 [5, 11] [nM] | SI NCI-H358 ([5]; Table 4) | SI A2780Cis [6] | IC50 [6] [nM] | IC50 [7, 12] [nM] | SI SNU-16 ([7]; Table 4) | IC50 (Hs294T (human melanoma); [13]) [nM] | SI Hs294T (Hs294T (human melanoma); Table 4) | also measured
1 | CC[C@@H](C(=O)[C@@H](C)[C@@H](O)[C@H](C)[C@@H]1O[C@@H]([C@@H](CC)C(=O)O)CC[C@@H]1C)[C@H]1O[C@]2(C=C[C@@H](NC(=O)Nc3ccc(Cl)c(Cl)c3)[C@]3(CC[C@@](C)([C@H]4CC[C@](O)(CC)[C@H](C)O4)O3)O2)[C@H](C)C[C@@H]1C [FLC-00370-1•Na] | 106.9 | 41.2 | 144 | 30.5 | 4400 | 489 | 9.0 | 826 | 5.33 | 134.5 | 32.7 | 1520 | 2.9 | 1860 | 2.4 | 
2 | CC[C@@H](C(=O)[C@@H](C)[C@@H](O)[C@H](C)[C@@H]1O[C@@H]([C@@H](CC)C(=O)O)CC[C@@H]1C)[C@H]1O[C@]2(C=C[C@@H](NC(=O)C(N)=O)[C@]3(CC[C@@](C)([C@H]4CC[C@](O)(CC)[C@H](C)O4)O3)O2)[C@H](C)C[C@@H]1C [FLC-00376-1•Na] | 7.0 | 663 | 1360 | 3.4 | 4640 | 1850 | 2.5 | 5310 | 0.87 | 10.6 | 436 |  |  |  |  | 
3 | CC[C@@H](C(=O)[C@@H](C)[C@@H](O)[C@H](C)[C@@H]1O[C@@H]([C@@H](CC)C(=O)O)CC[C@@H]1C)[C@H]1O[C@]2(C=C[C@@H](NC(=O)Nc3cccc(C(F)(F)F)c3)[C@]3(CC[C@@](C)([C@H]4CC[C@](O)(CC)[C@H](C)O4)O3)O2)[C@H](C)C[C@@H]1C [FLC-00385-1] | 125.5 | 0.17 | 0.55 | 39.7 | 21.9 | 5.93 | 3.7 | 36.2 | 0.60 | ≈219.0 | < 0.1 | 20.9 | 1.0 | 162 | 0.1 | 
4 | CC[C@@H](C(=O)[C@@H](C)[C@@H](O)[C@H](C)[C@@H]1O[C@@H]([C@@H](CC)C(=O)O)CC[C@@H]1C)[C@H]1O[C@]2(C=C[C@@H](NC(N)=O)[C@]3(CC[C@@](C)([C@H]4CC[C@](O)(CC)[C@H](C)O4)O3)O2)[C@H](C)C[C@@H]1C [FLC-00391-1] | 10.2 | 349 | 584 | 6.1 | 3570 | 3090 | 1.2 | 5150 | 0.69 | 33.0 | 108 | 1330 | 2.7 | 5870 | 0.6 | 
5 | CC[C@@H](C(=O)[C@@H](C)[C@@H](O)[C@H](C)[C@@H]1O[C@@H]([C@@H](CC)C(=O)O)CC[C@@H]1C)[C@H]1O[C@]2(C=C[C@@H](NC(=O)OCC(F)(F)F)[C@]3(CC[C@@](C)([C@H]4CC[C@](O)(CC)[C@H](C)O4)O3)O2)[C@H](C)C[C@@H]1C [FLC-00395-1•Na] | 177.2 | 0.44 |  | 2.1 |  |  | 2.4 |  | 0.65 | 43.8 | 1.78 |  | 0.8 |  | 1.6 | IC50 ([2]; Homo sapiens, PLC-PRF-5, read-out: IC50 (nM) PLC/PRF/5): 37.5 nM; IC50 ([3]; Mus musculus, BALB/3T3, read-out: IC50 (nM) BALB3T3 normal cells): 78 nM; IC50 ([4]; Homo sapiens, MIA PaCa-2, read-out: IC50 (nM) MIA PaCa-2): 33.1 nM; IC50 ([5]; Homo sapiens, NCI-H358, read-out: IC50 (nM) NCI-H358): 121 nM; IC50 ([7]; Homo sapiens, SNU-16, read-out: IC50 (nM) SNU-16): 104 nM; IC50 (Hs294T (human melanoma); Homo sapiens): 47.3 nM
6 | CC[C@@H](C(=O)[C@@H](C)[C@@H](O)[C@H](C)[C@@H]1O[C@@H]([C@@H](CC)C(=O)O)CC[C@@H]1C)[C@H]1O[C@]2(C=C[C@@H](NC(=O)Nc3c(F)c(F)c(F)c(F)c3F)[C@]3(CC[C@@](C)([C@H]4CC[C@](O)(CC)[C@H](C)O4)O3)O2)[C@H](C)C[C@@H]1C [FLC-00428-1•Na] | 182.9 | 1.34 | 7.85 | 31.1 | 244 | 36.9 | 6.6 | 57.3 | 4.27 | 56.0 | 4.36 | 114 | 2.1 | 173 | 1.4 | 
7 | CC[C@@H](C(=O)[C@@H](C)[C@@H](O)[C@H](C)[C@@H]1O[C@@H]([C@@H](CC)C(=O)O)CC[C@@H]1C)[C@H]1O[C@]2(C=C[C@@H](NC(=O)Oc3ccccc3)[C@]3(CC[C@@](C)([C@H]4CC[C@](O)(CC)[C@H](C)O4)O3)O2)[C@H](C)C[C@@H]1C [FLC-00429-1•Na] |  |  | 27 |  |  | 39.8 |  | 76.1 |  |  |  | 168 |  | 115 |  | 
8 | CC[C@@H](C(=O)[C@@H](C)[C@@H](O)[C@H](C)[C@@H]1O[C@@H]([C@@H](CC)C(=O)O)CC[C@@H]1C)[C@H]1O[C@]2(C=C[C@@H](NC(=O)OCc3ccccc3)[C@]3(CC[C@@](C)([C@H]4CC[C@](O)(CC)[C@H](C)O4)O3)O2)[C@H](C)C[C@@H]1C [FLC-00431-1•Na] |  |  | 5.8 |  |  | 28.9 |  | 56.1 |  |  |  | 143 |  | 115 |  | 
9 | CC[C@@H](C(=O)[C@@H](C)[C@@H](O)[C@H](C)[C@@H]1O[C@@H]([C@@H](CC)C(=O)O)CC[C@@H]1C)[C@H]1O[C@]2(C=C[C@@H](NC(=O)OCCF)[C@]3(CC[C@@](C)([C@H]4CC[C@](O)(CC)[C@H](C)O4)O3)O2)[C@H](C)C[C@@H]1C [FLC-00437-1•Na] | 37.5 | 5.11 | 42.3 | 4.5 | 192 | 45.7 | 4.2 | 184 | 1.04 | 40.8 | 4.7 | 342 | 0.6 | 264 | 0.7 | 
10 | CC[C@@H](C(=O)[C@@H](C)[C@@H](O)[C@H](C)[C@@H]1O[C@@H]([C@@H](CC)C(=O)O)CC[C@@H]1C)[C@H]1O[C@]2(C=C[C@@H](NC(=O)OC(CCl)CCl)[C@]3(CC[C@@](C)([C@H]4CC[C@](O)(CC)[C@H](C)O4)O3)O2)[C@H](C)C[C@@H]1C [FLC-00440-1•Na] | 32.6 | 3.52 | 9.5 | 12.1 | 115 | 43.6 | 2.6 | 60.2 | 1.91 | 26.1 | 4.41 | 400 | 0.3 | 130 | 0.9 | 
11 | CC[C@@H](C(=O)[C@@H](C)[C@@H](O)[C@H](C)[C@@H]1O[C@@H]([C@@H](CC)C(=O)O)CC[C@@H]1C)[C@H]1O[C@]2(C=C[C@@H](NC(=O)C(=O)NC3CC3)[C@]3(CC[C@@](C)([C@H]4CC[C@](O)(CC)[C@H](C)O4)O3)O2)[C@H](C)C[C@@H]1C [FLC-00441-1•Na] | 42.5 | 26.5 | 208 | 5.4 | 1120 | 373 | 3.0 | 930 | 1.21 | 25.7 | 43.8 | 2600 | 0.4 | 969 | 1.2 | 
12 | CC[C@@H](C(=O)[C@@H](C)[C@@H](O)[C@H](C)[C@@H]1O[C@@H]([C@@H](CC)C(=O)O)CC[C@@H]1C)[C@H]1O[C@]2(C=C[C@@H](NC(=O)C(=O)NCC3CC3)[C@]3(CC[C@@](C)([C@H]4CC[C@](O)(CC)[C@H](C)O4)O3)O2)[C@H](C)C[C@@H]1C [FLC-00442-1•Na] | 38.9 | 19.4 | 53.9 | 14.0 | 754 | 102 | 7.4 | 340 | 2.22 | 32.3 | 23.3 | 1120 | 0.7 | 1710 | 0.4 | 
13 | CC[C@@H](C(=O)[C@@H](C)[C@@H](O)[C@H](C)[C@@H]1O[C@@H]([C@@H](CC)C(=O)O)CC[C@@H]1C)[C@H]1O[C@]2(C=C[C@@H](NC(=O)C(=O)NC)[C@]3(CC[C@@](C)([C@H]4CC[C@](O)(CC)[C@H](C)O4)O3)O2)[C@H](C)C[C@@H]1C [FLC-00443-1•Na] | 23.4 | 175 | 477 | 8.6 | 4110 | 554 | 7.4 | 2620 | 1.57 | 23.3 | 176 | 6190 | 0.7 | 3970 | 1.0 | 
